Here are results for 32 compounds from patent US20230104936A1, “TRPML MODULATORS” (Casma Therapeutics, Inc., priority 2019, published 2023).

The assay relates to TFEB. Kind of assay: TFEB nuclear translocation assay, HeLa wt cells. To be noted: 2 hrs compound treatment, Table 1 does not say HeLa wt or TRPML1 KO. In kind it is cell-based. The method, boiled down: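 HeLa wt cells were treated with compound for 2 hrs at 37° C, then fixed in 4% PFA and immunostained for TFEB with an Alexa 488 secondary and Hoechst nuclear counterstain. Automated epifluorescence imaging at ×20 gave the ratio of nuclear TFEB intensity to a perinuclear ring region, from which AC50 was derived.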

The structures appear in SMILES notation.

Broadly, the AC50 is the concentration giving half of the maximal activity seen. Low readings indicate activity at low concentration, high ones activity only at high concentration. Take `Cc1ccc(S(=O)(=O)C(C)c2cccc(F)c2N2CCC(CN3C4CCC3COC4)CC2)cc1` (single isomer, unassigned) [Compound A-924, 8-((1-(2-fluoro-6-(1-tosylethyl)phenyl)piperidin-4-yl)methyl)-3-oxa-8-azabicyclo[3.2.1]octane]: the concentration at half-maximal activity (AC50) is ≤ 2000 nM. On to `CN(C)S(=O)(=O)c1ccc(S(=O)(=O)Nc2ccccc2N2CCC(COC(F)(F)F)CC2)cc1` [Compound A-696, N1,N1-dimethyl-N4-(2-{4-[(trifluoromethoxy)methyl]piperidin-1-yl}phenyl)benzene-1,4-disulfonamide], for which the half-maximal activity concentration (AC50) (Homo sapiens, HeLa, 2 h) was ≤ 2000 nM. For `CC(c1cccc(C#N)c1N1CCC(CN2C[C@@H](C)O[C@@H](C)C2)CC1)S(=O)(=O)c1ccc(S(=O)(=O)N(C)C)cc1` (single isomer, unassigned) [Compound A-854, 4-((1-(3-cyano-2-(4-((2,6-dimethylmorpholino)methyl)piperidin-1-yl)phenyl)ethyl)sulfonyl)-N,N-dimethylbenzenesulfonamide], the AC50 was ≤ 2000 nM. On to `CC(C)(C)C(=O)N1CCN(c2ccccc2NS(=O)(=O)c2ccc(OC3CCCC3)cc2)CC1` [Compound A-536, 4-(cyclopentyloxy)-N-{2-[4-(2,2-dimethylpropanoyl)piperazin-1-yl]phenyl}benzene-1-sulfonamide], for which the concentration at half-maximal activity (AC50) (Homo sapiens, HeLa, 2 h) fell in the range of 8010 to 9990 nM.

For `Cc1ccc(S(=O)(=O)c2ccccc2N2CCC(c3ccc(Cl)cc3F)CC2)cc1` [Compound A-133], the AC50 (Homo sapiens, HeLa, 2 h) is ≥ 10000 nM. On the same count and under the same terms, the figure for `CN(C)S(=O)(=O)c1ccc(S(=O)(=O)Nc2nnc(N3CCN(c4ccc(Cl)cc4F)CC3)s2)cc1` [Compound A-36, N4-{5-[4-(4-chloro-2-fluorophenyl)piperazin-1-yl]-1,3,4-thiadiazol-2-yl}-N1,N1-dimethylbenzene-1,4-disulfonamide] is ≤ 2000 nM. The same measure, in the same setting: the figure for `COCC1(C)CCN(c2ccccc2NS(=O)(=O)c2ccc(C3CC3(F)F)cc2)CC1` (centres unmarked) [Compound A-650, 4-(2,2-difluorocyclopropyl)-N-{2-[4-(methoxymethyl)-4-methylpiperidin-1-yl]phenyl}benzene-1-sulfonamide] is ≤ 2000 nM; for `CS(=O)(=O)c1ccc(S(=O)(=O)Nc2ccccc2N2CCC(c3c(F)cc(F)cc3F)CC2)cc1` [Compound A-132, 4-methanesulfonyl-N-{2-[4-(2,4,6-trifluorophenyl)piperidin-1-yl]phenyl}benzene-1-sulfonamide] it is ≤ 2000 nM. The same measure, in the same setting: the result for `CC(c1cc(Cl)cnc1N1CCC(CN2CCC(F)(F)CC2)CC1)S(=O)(=O)c1ccc2c(c1)CCC2` (single isomer, unassigned) [Compound A-993, 5-chloro-2-(4-((4,4-difluoropiperidin-1-yl)methyl)piperidin-1-yl)-3-(1-((2,3-dihydro-1H-inden-5-yl)sulfonyl)ethyl)pyridine] reads ≤ 2000 nM; that for `COCC1(C)CCN(c2ccccc2NS(=O)(=O)c2ccc3c(c2)CC(OC)C3)CC1` (centres unmarked) [Compound A-707, 2-methoxy-N-{2-[4-(methoxymethyl)-4-methylpiperidin-1-yl]phenyl}-2,3-dihydro-1H-indene-5-sulfonamide], 2010 to 8000 nM.

With `CN(C)C1Cc2ccccc2C12CCN(c1ccccc1NS(=O)(=O)c1ccc(S(=O)(=O)N(C)C)cc1)CC2` (centres unmarked) [Compound A-370, N4-{2-[2-(dimethylamino)-2,3-dihydrospiro[indene-1,4′-piperidin]-1′-yl]phenyl}-N1,N1-dimethylbenzene-1,4-disulfonamide], where the note is “Homo sapiens, HeLa, 2 h”, the AC50 was ≤ 2000 nM. Same read-out and setting: the figure for `CN(C)S(=O)(=O)c1ccc(S(=O)(=O)Nc2ccccc2N2CCC(O)(c3ccncc3F)CC2)cc1` [Compound A-401, N4-{2-[4-(3-fluoropyridin-4-yl)-4-hydroxypiperidin-1-yl]phenyl}-N1,N1-dimethylbenzene-1,4-disulfonamide] is ≥ 10000 nM. On the same count and under the same terms, the figure for `Cc1cc(NS(=O)(=O)c2ccc(S(=O)(=O)N(C)C)cc2)n(C2CCCCC2)c(=O)c1` [Compound A-934, N4-(1-cyclohexyl-4-methyl-6-oxo-1,6-dihydropyridin-2-yl)-N1,N1-dimethylbenzene-1,4-disulfonamide] is ≥ 10000 nM; for `CC1(C)CC2(CCN(c3ccccc3NS(=O)(=O)Cc3ccccc3)CC2)CO1` [Compound A-570, N-(2-{3,3-dimethyl-2-oxa-8-azaspiro[4.5]decan-8-yl}phenyl)-1-phenylmethanesulfonamide] it is ≤ 2000 nM; for `CC(c1cncc(F)c1N1CCC(F)(F)CC1)S(=O)(=O)c1ccc(S(=O)(=O)N(C)C)cc1` (centres unmarked) [Compound A-986, 4-{1-[4-(4,4-difluoropiperidin-1-yl)-5-fluoropyridin-3-yl]ethanesulfonyl}-N,N-dimethylbenzene-1-sulfonamide] it is ≥ 10000 nM. On the same count and under the same terms, the result for `CC(C)CN1CCN(c2ccccc2NS(=O)(=O)c2ccc(S(=O)(=O)N(C)C)cc2)CCC1=O` [Compound A-526, N1,N1-dimethyl-N4-{2-[4-(2-methylpropyl)-5-oxo-1,4-diazepan-1-yl]phenyl}benzene-1,4-disulfonamide] reads 2010 to 8000 nM. On to `CN(C)S(=O)(=O)c1ccc(S(=O)(=O)Nc2ccccc2N2CCC(C(F)(F)F)CC2)cc1` [Compound A-550, N1,N1-dimethyl-N4-{2-[4-(trifluoromethyl)piperidin-1-yl]phenyl}benzene-1,4-disulfonamide], for which the AC50 (Homo sapiens, HeLa, 2 h) is ≤ 2000 nM. On the same count and under the same terms, the result for `CN(C)S(=O)(=O)c1ccc(S(=O)(=O)Nc2ccccc2N2CC=C(c3ccc(Cl)cc3F)CC2)cc1` [Compound A-32, N4-{2-[4-(4-chloro-2-fluorophenyl)-1,2,3,6-tetrahydropyridin-1-yl]phenyl}-N1,N1-dimethylbenzene-1,4-disulfonamide] reads ≤ 2000 nM; that for `CN1c2ccccc2N(S(=O)(=O)c2ccc(S(=O)(=O)N(C)C)cc2)CC1c1ccc(Cl)cc1F` (centres unmarked) [Compound A-146, 4-{[3-(4-chloro-2-fluorophenyl)-4-methyl-1,2,3,4-tetrahydroquinoxalin-1-yl]sulfonyl}-N,N-dimethylbenzene-1-sulfonamide], ≤ 2000 nM. Under “Homo sapiens, HeLa, 2 h”, `CN(C)S(=O)(=O)c1ccc(S(=O)(=O)Nc2cc(Cl)ccc2N2CCN(C(=O)C(C)(C)C)CC2)cc1` [Compound A-400, N4-{5-chloro-2-[4-(2,2-dimethylpropanoyl)piperazin-1-yl]phenyl}-N1,N1-dimethylbenzene-1,4-disulfonamide] displayed a concentration at half-maximal activity (AC50) of 2010 to 8000 nM. Same read-out and setting: the result for `CN(C)S(=O)(=O)c1ccc(S(=O)(=O)Nc2ccccc2N2CCN(CC(F)(F)F)CC2)cc1` [Compound A-560, N1,N1-dimethyl-N4-{2-[4-(2,2,2-trifluoroethyl)piperazin-1-yl]phenyl}benzene-1,4-disulfonamide] reads ≤ 2000 nM. Same read-out and setting: the result for `CN(C)S(=O)(=O)c1ccc(S(=O)(=O)Nc2ccccc2N2CCC(C3CC3(F)F)CC2)cc1` (centres unmarked) [Compound A-479, N4-{2-[4-(2,2-difluorocyclopropyl)piperidin-1-yl]phenyl}-N1,N1-dimethylbenzene-1,4-disulfonamide] reads ≤ 2000 nM; that for `CC(c1cccc(F)c1N1CCC(CN2C3CCC2COC3)CC1)S(=O)(=O)c1ccc(S(C)(=O)=O)cc1` (centres unmarked) [Compound A-904, 8-[(1-{2-fluoro-6-[1-(4-methanesulfonylbenzenesulfonyl)ethyl]phenyl}piperidin-4-yl)methyl]-3-oxa-8-azabicyclo[3.2.1]octane], 2010 to 8000 nM. In turn, `CC(c1cccc(F)c1N1CCCCC1)S(=O)(=O)c1ccc(S(=N)(=O)C(F)F)cc1` (single isomer, unassigned) [Compound A-939, (difluoromethyl)(4-((1-(3-fluoro-2-(piperidin-1-yl)phenyl)ethyl)sulfonyl)phenyl)(imino)-l6-sulfanone] showed an AC50 of 2010 to 8000 nM.

Consider `COCC1(C)CCN(c2ccc(OC)cc2NS(=O)(=O)c2ccc3c(c2)CCC3)CC1` [Compound A-630, N-{5-methoxy-2-[4-(methoxymethyl)-4-methylpiperidin-1-yl]phenyl}-2,3-dihydro-1H-indene-5-sulfonamide], for which the AC50 (Homo sapiens, HeLa, 2 h) was ≤ 2000 nM. `Cc1cc(S(=O)(=O)Nc2ccccc2N2CCC3(CC2)COC(C)(C)C3)ccc1F` [Compound A-661, N-(2-{3,3-dimethyl-2-oxa-8-azaspiro[4.5]decan-8-yl}phenyl)-4-fluoro-3-methylbenzene-1-sulfonamide] registered a concentration at half-maximal activity (AC50) (Homo sapiens, HeLa, 2 h) of 2010 to 8000 nM.

With `CC(C1CCN(c2c(F)cccc2NS(=O)(=O)c2ccc(S(=N)(=O)N(C)C)cc2)CC1)N1C[C@@H](C)O[C@@H](C)C1` (single isomer, unassigned) [Compound A-872], the concentration at half-maximal activity (AC50) is ≤ 2000 nM. In the case of `COCC1(C)CCN(c2ccccc2NS(=O)(=O)Cc2ccc(C)cc2)CC1` [Compound A-578, N-{2-[4-(methoxymethyl)-4-methylpiperidin-1-yl]phenyl}-1-(4-methylphenyl)methanesulfonamide], under “Homo sapiens, HeLa, 2 h”, the AC50 is 2010 to 8000 nM. Still for that read-out and setting: the result for `CN(C)S(=O)(=O)c1ccc(S(=O)(=O)Nc2ccccc2N2CCC(c3ccc(C(=O)O)cc3)CC2)cc1` [Compound A-267, 4-(1-{2-[4-(dimethylsulfamoyl)benzenesulfonamido]phenyl}piperidin-4-yl)benzoic acid] reads ≥ 10000 nM; that for `COCC1(C)CCN(c2c(F)cccc2NS(=O)(=O)c2ccc(S(=O)(=O)N(C)C)cc2)CC1` [Compound A-681, N4-{3-fluoro-2-[4-(methoxymethyl)-4-methylpiperidin-1-yl]phenyl}-N1,N1-dimethylbenzene-1,4-disulfonamide], ≤ 2000 nM; that for `COC1(C(=O)N2CCN(c3ccccc3NS(=O)(=O)c3ccc(S(=O)(=O)N(C)C)cc3)CC2)CCC1` [Compound A-458, N4-{2-[4-(1-methoxycyclobutanecarbonyl)piperazin-1-yl]phenyl}-N1,N1-dimethylbenzene-1,4-disulfonamide], 2010 to 8000 nM. As for `Cc1nc(C2CC2)sc1S(=O)(=O)Nc1ccccc1N1CCC(CN2C[C@@H](C)O[C@@H](C)C2)CC1` [Compound A-768, 2-cyclopropyl-N-[2-(4-{[(2R,6S)-2,6-dimethylmorpholin-4-yl]methyl}piperidin-1-yl)phenyl]-4-methyl-1,3-thiazole-5-sulfonamide], where the note is “Homo sapiens, HeLa, 2 h”, the AC50 was ≤ 2000 nM.
